From PMC12320245 (International Journal of Biological Sciences, 2025)

Assays:
[1] = test system: TBI rats; assay: Controlled cortical impact TBI: Morris water maze; assay type: in vivo, rat; settings: vs TBI-vehicle
Experimental: (§1) This study used male Sprague-Dawley rats weighing 300-350 g and aged 8 weeks, obtained from DBL Co. (Chungcheongbuk-do, Republic of Korea). The rats were housed in a controlled environment with a temperature of 20 ± 2 °C, a relative humidity of 55 ± 5%, and a 12-hour light/dark cycle. They were provided ad libitum access to food and water. To minimize stress associated with transportation, animals underwent a one-week acclimatization period before the start of the experiments. All experimental procedures were conducted in compliance with the guidelines of the National Institutes of Health for the care and use of laboratory animals and were approved by the Hallym University Institutional Animal Care and Use Committee (protocol # Hallym 2022-23, approved on July 15, 2022). This manuscript follows the principles outlined in the Animal research: reporting in vivo experiments (ARRIVE) guidelines.
A controlled cortical impact (CCI) model was used to induce TBI in rats. Animals were anesthetized with 1-1.5% isoflurane in a 30:70 oxygen-to-nitrous oxide mixture and securely positioned in a stereotaxic frame. A 3 mm craniotomy was performed using a portable drill at a site 2.8 mm lateral to the midline and 3.0 mm posterior to Bregma. TBI was induced using an Impact One™ Stereotaxic Impactor (Leica Biosystems) equipped with a 3 mm flat-tip, set to deliver an impact at a velocity of 5 m/s and a depth of 3 mm. Throughout the procedure, body temperature was maintained at 36-37.5°C using a homeothermic blanket system to prevent hypothermia. […] At designated time points (3 hours, 24 hours, or 2 weeks post-injury), animals were euthanized via transcardial perfusion with saline, followed by 4% paraformaldehyde (PFA). Brains were post-fixed in 4% PFA for 1 hour, cryoprotected in 30% sucrose, and sectioned at a 30 μm thickness using a cryostat microtome (CM1850; Leica, Wetzlar, Germany). Brain sections were stored in cryoprotectant solution at 4°C until further analysis.
The MWM is a well-established behavioral test used to assess cognitive function in rodents. […] The following parameters were recorded during the training sessions: 1) escape latency (time taken to reach the platform), 2) distance traveled to locate the platform, and 3) the number of target crossings (times the platform location was crossed). […] The time spent in the target quadrant (where the platform had been located during training) and the number of crossings over the platform location were recorded. Behavioral data, including escape latency, distance traveled, target crossings, and time spent in the target quadrant, were tracked and analyzed using smart video-tracking software (Panlab, Carrer de l'Energia, Spain).

[2] = test system: primary hippocampal neurons; assay: Scratch injury: p-PKA analysis; assay type: cell-based, rat; settings: 10 μM AMX immediately after scratch, 6 hours post-injury
Experimental: Primary hippocampal neurons were obtained from embryonic day 18 (E18) Sprague-Dawley rat embryos. Pregnant rats were anesthetized using 2-3% isoflurane in a gas mixture of 70% nitrous oxide and 30% oxygen. Following euthanasia, the hippocampi were carefully dissected, minced, and enzymatically dissociated using TrypLE Express (Gibco, NY, USA) for 10 minutes at 37°C. The tissue was further mechanically dissociated using fire-polished glass pipettes, and the resulting cell suspension was filtered through a 70 μm cell strainer to remove debris. Neurons were seeded at a density of 3 × 10^5 cells per well in 24-well plates pre-coated with poly-L-lysine (Sigma-Aldrich, Saint Louis, MO, USA). […]
A scratch injury model was used to mimic TBI in vitro. […] After the treatment period, neuronal damage and recovery were assessed using appropriate evaluation methods.
Six hours after the scratch assay, cellular activity was terminated by replacing the culture medium with 0.1 M HCl. Cell lysates were then collected and analyzed for PKA activity using a commercial PKA kinase activity assay kit (Abcam, ab139435), following the manufacturer's protocol. […] Substrate phosphorylation was detected using a phospho-specific primary antibody and an HRP-conjugated secondary antibody. […] PKA activity was quantified as optical density (OD) values and expressed relative to control samples.

[3] = test system: hippocampus of TBI rats; assay: Controlled cortical impact TBI: Fluoro-Jade B neuronal death; assay type: in vivo, rat; settings: ipsilateral CA1, CA3, GCL, hilus, 24 hours post-TBI, vs TBI-vehicle
Experimental: as §1
A controlled cortical impact (CCI) model was used to induce TBI in rats. […]
Neuronal death was assessed 24 hours after TBI via Fluoro-Jade B (FJB) staining, a method designed for detecting degenerating neurons. […] FJB-positive cells were quantified in hippocampal subregions, including CA1 (Cornu Ammonis 1), CA3 (Cornu Ammonis 3), GCL (granule cell layer), and the hilus.

CC(C)c1ccc2oc3nc(N)c(C(=O)O)cc3c(=O)c2c1 [AMX, amlexanox]
MWM distance to the hidden platform ([1]; days 8-12 post-TBI): reduced target distances
MWM escape latency ([1]; days 8-12 post-TBI): shorter escape latency
MWM platform crossings ([1]; probe trial): more frequent platform crossings
MWM time spent in the target quadrant ([1]; probe trial): increased time spent in the target quadrant
p-PKA levels after scratch injury (ELISA) [2]: restored cAMP and p-PKA levels
number of FJB-positive degenerating neurons [3]: significantly reduced the number of FJB-positive degenerating neurons
